# Data: patent US20170275302A1, “INHIBITORS OF THE RENAL OUTER MEDULLARY POTASSIUM CHANNEL” (Merck Sharp & Dohme Corp., priority 2014, published 2017)
# Biological target: T1, hROMK (hKir1.1) (Homo sapiens, UniProt P48048)
# T1 construct: expressed in transfected cells
# T1 sequence (P48048 1-391): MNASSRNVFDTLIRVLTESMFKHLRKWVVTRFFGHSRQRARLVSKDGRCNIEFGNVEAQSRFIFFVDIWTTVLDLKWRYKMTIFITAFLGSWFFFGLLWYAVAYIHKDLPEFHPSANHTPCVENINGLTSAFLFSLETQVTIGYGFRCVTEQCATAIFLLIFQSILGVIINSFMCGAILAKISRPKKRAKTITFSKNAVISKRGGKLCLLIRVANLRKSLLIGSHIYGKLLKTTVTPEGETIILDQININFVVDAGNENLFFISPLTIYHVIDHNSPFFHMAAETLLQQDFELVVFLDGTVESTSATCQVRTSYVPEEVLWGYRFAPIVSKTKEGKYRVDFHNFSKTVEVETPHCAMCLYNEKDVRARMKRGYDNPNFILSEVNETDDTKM
# Assay: Thallium Flux Assay (ROMK channel functional thallium flux assay, FLIPR-Tetra)
# Type: cell-based
# Details: HEK293 cells stably expressing hROMK (hKir1.1); FluxOR thallium flux, 30 min compound incubation; concentration inhibiting 50% of ROMK thallium flux signal
# Description: The following Thallium Flux Assay was performed on each of the final product compounds in the Examples.
# HEK293 cells stably expressing hROMK (hKir1.1) were grown at 37° C. in a 10% CO2 humidified incubator in complete growth media: Dulbecco's Modified Eagle Medium supplemented with non-essential amino acids, Penicillin/Streptomycin/Glutamine, G418 and FBS. At >80% confluency, the media was aspirated from the flask and rinsed with 10 mL calcium/magnesium-free phosphate buffered saline (PBS). 5 mL of 1× trypsin (prepared in Ca/Mg Free PBS) was added to T-225 flask and the flask was returned to 37° C./CO2 incubator for 2-3 minutes. To dislodge the cells, the side of the flask was gently banged with one's hand. The cells were completely titrated and then the cells were transferred to 25 mL complete media, centrifuged at 1,500 rpm for 6 min followed by resuspension in complete growth media, and the cell concentration was determined. For typical re-seeding, 4E6 cells/T-225 flask will attain >80% confluency in 4 days. Under ideal growth conditions and appropriate tissue culture practices, this cell line is stable for 40-45 passages.
# Compound Buffer (per microplate): 20 mL Probenecid/Assay Buffer; 0.3 mM ouabain (10 mM ouabain in water can be stored in amber bottle/aluminum foil at room temperature); Test compound
# Stimulant Buffer (prepared at 5× final concentration in 1× FluxOR™Chloride-Free Buffer): 7.5 mM thallium sulfate and 0.75 mM potassium sulfate (to give a final assay concentration of 3 mM Thallium/0.3 mM potassium). Store at 4° C. when not in use. If kept sterile, this solution is good for months.
# The ROMK channel functional thallium flux assay was performed in 384 wells, using the FLIPR-Tetra instrument. HEK-hKir1.1 cells were seeded in Poly-D-Lysine microplates and kept in a 37° C.-10% CO2 incubator overnight. On the day of the experiment, the growth media was replaced with the FluxOR™ reagent loading buffer and incubated, protected from light, at ambient temperature (23-25° C.) for 90 min. The loading buffer was replaced with assay buffer±test compound followed by 30 min incubation at ambient temperature, where the thallium/potassium stimulant was added to the microplate.
# • 1. Seed HEK-hKir1.1 cells (50 μl at 20,000 cells/well) in 384-well PDL coated Microplates • 2. Allow cells to adhere overnight in humidified 37° C./10% CO2 incubator • 3. Completely remove cell growth media from microplate and replace with 25 μl loading buffer • 4. Incubate Microplate at room temperature, protected form light, for 90 min • 5. Remove loading buffer and replace with 25 μl 1× Assay Buffer±test compound. • 6. Incubate microplate at room temperature, protected from light, for 30 min • 7. At FLIPR-Tetra 384: Add stimulant (thallium/potassium) solution to microplate and monitor fluorescence. Excitation=400 nm, Emission=460 & 580 nm. Collect data for ˜10 min.
# The fluorescence intensity of wells containing 3 μM of a standard control ROMK inhibitor of the present invention was used to define the ROMK-sensitive component of thallium flux. Fluorescence in the presence of test compounds was normalized to control values to provide % fluorescence change. IC50 values represent the concentration of compound that inhibited 50% of the ROMK thallium flux signal.
row,SMILES,IC50 [nM]
1,Cc1c([C@@H](O)CN2CCC3(CC2)CCN(c2snc4cccnc24)C3=O)ccc2c1COC2=O [Example 83],33.9
2,Cc1c([C@@H](O)CN2CCC3(CC2)CCN(c2snc4ncccc24)C3=O)ccc2c1COC2=O [Example 84],57.1
3,Cc1c([C@@H](O)CN2CCC3(CC2)CCN(c2snc4ccncc24)C3=O)ccc2c1COC2=O [Example 85],18.5
4,Cc1c([C@@H](O)CN2CCC3(CC2)CCN(c2ccc4cnnn4c2)C3=O)ccc2c1COC2=O [Example 86],172
5,Cc1c([C@@H](O)CN2CCC3(CC2)CCN(c2ccn4cncc4c2)C3=O)ccc2c1COC2=O [Example 87],260
6,"Cc1c([C@@H](O)CN2CCC3(CC2)CCN(c2ccn4nncc4c2)C3=O)ccc2c1COC2=O [Example 88, (R)-2-([1,2,3]triazolo[1,5-a]pyridin-5-yl)-8-(2-hydroxy-2-(4-methyl-1-oxo-1,3-dihydroisobenzofuran-5-yl)ethyl)-2,8-diazaspiro[4.5]decan-1-one]",29.2
7,"Cc1c([C@@H](O)CN2CCC3(CC2)CC(=O)N(c2ccc4nonc4c2)C3)ccc2c1COC2=O [Example 89, (R)-2-(benzo[c][1,2,5]oxadiazol-5-yl)-8-(2-hydroxy-2-(4-methyl-1-oxo-1,3-dihydroisobenzofuran-5-yl)ethyl)-2,8-diazaspiro[4.5]decan-3-one]",42.7
8,Cc1c([C@@H](O)CN2CCC3(CC2)CCN(c2ccc4nonc4c2)C3)ccc2c1COC2=O [Example 90],98.3
9,Cc1c([C@@H](O)CN2CCC3(CC2)CCN(c2nccn4ccnc24)C3)ccc2c1COC2=O [Example 91],699
10,"Cc1c([C@@H](O)CN2CCC3(CC2)CCN(c2cnc4nonc4c2)C3)ccc2c1COC2=O [Example 92, (R)-5-(2-(2-([1,2,5]oxadiazolo[3,4-b]pyridin-6-yl)-2,8-diazaspiro[4.5]decan-8-yl)-1-hydroxyethyl)-4-methylisobenzofuran-1(3H)-one]",27.3
11,Cc1c([C@@H](O)CN2CCC3(CC2)CC(=O)N(c2ccc4nonc4n2)C3)ccc2c1COC2=O [Example 93],274
12,Cc1c([C@@H](O)CN2CCC3(CC2)CC(=O)N(c2cnc4nonc4c2)C3)ccc2c1COC2=O [Example 94],109
13,"Cc1c([C@@H](O)CN2CCC3(CC2)CCN(c2ccc4nonc4n2)C3)ccc2c1COC2=O [Example 95, (R)-5-(2-(2-([1,2,5]oxadiazolo[3,4-b]pyridin-5-yl)-2,8-diazaspiro[4.5]decan-8-yl)-1-hydroxyethyl)-4-methylisobenzofuran-1(3H)-one]",19.2
